Assay results from patent US20240382438A1, “Calcium Channel Blockers and Methods Thereof” (University of Maryland, Eastern Shore, priority 2023, published 2024).
“Also recorded” adds a separate entry of the source. One block for each molecule: values may come before it.

Columns and labels:
human Cav3.2 = molecular target: T1, human Cav3.2 (Homo sapiens, UniProt O95180); assay: Whole-cell patch clamp of T-type Ca2+ currents in Cav3.2-stable transfected HEK 293 cells; format: cell-based
T1 construct: host or cells: HEK 293
Description: Certain exemplary embodiments have undergone target identification studies to discover a better officious T-type calcium blocker. The fourteen trifluoromethylated N-benzamide enaminone compounds were synthesized, purified, and structure confirmed using gas chromatography/mass spectroscopy, nuclear magnetic resonance, and elemental analysis. Preliminary in vitro whole cell patch clamp experiments were performed to assess the inhibitory effects of several target analogs on voltage-activated calcium currents in human embryonic kidney (HEK-293) cells. Cav3.2 transfected HEK 293 cells were treated with 50 μM of test compounds and compared to the control group (none pretreated HEK 293 cells).
(§1) ND7/23 cells are derived from the fusion of mouse neuroblastoma and rat dorsal root ganglion cells, which generates a more homogeneous sensory neuron-like cell population. ND7/23 cells were purchased from Sigma-Aldrich (RRID:CVCL_4259). Culture and differentiation of ND7/23 cells was performed as previously described. Briefly, ND7/23 cells were cultured in DMEM/F12 culture media (Millipore, Cat. #DF-041-B), supplemented with 0.5% fetal bovine serum (Invitrogen, Cat. #10437010), db-cAMP (1 mM, Sigma-Aldrich, Cat. #D0627), and nerve growth factor (NGF, 50 ng/mL, Sigma-Aldrich, Ca. #N2513). To remove any proliferating cells, cultures were treated with uridine (20 μM, Sigma-Aldrich, Cat. #U3003) and fluorodeoxyuridine (20 μM, Sigma-Aldrich, Cat. #F0503). Cells were maintained in differentiation media without uridine and fluorodeoxyuridin after induction of differentiation. ND7/23 cells were maintained in differentiation media for ≤6 days. HEK 293 cells that were stabled transfected with the human Cav3.2 and Cav3.3 channel subunits were a gift of Dr. E. Perez-Reyes (University of Virginia). Cav3.2 (or Cav3.3)-stabled transfected HEK 293 cells were culture in DMEM/F12 culture media, supplemented with 5% fetal bovine serum, 50 U/mL penicillin and 50 μg/mL streptomycin. ND7/23 and HEK 293 cells were grown in an incubator at 37° C. in the presence of 5% CO2/95% air humidified atmosphere. Cells passaged less than 20 times were used in this work. Cells were grown in poly-D-lysine-coated glass coverslips for electrophysiological recordings.
Whole cell recordings were performed as previously described. A Nikon Eclipse Ti inverted microscope equipped with Hoffman optics and epifluorescence filters was used to visualize individual cells. Recordings were performed at room temperature (22-24° C.) using glass electrodes made from thin wall borosilicate glass (3-5 MΩ). For electrophysiological recordings of inward Ca^2+ currents, outward K^+ currents were eliminated by equimolar substitution of K^+ with Cs^+ in the pipette solution, whereas inward Na^+ currents were eliminated by the use of TEA ions in the external solution, which are unable to go through voltage-gated Na^+ channels. The pipette solution consisted of (in mM) CsCl (120), MgCl2(2), HEPES (10), EGTA (10), ATP (1), and GTP (0.1), pH 7.4 with CsOH. The composition of the normal external saline used for measurements of Ca^2+ currents was (in mM): tetraethylammonium chloride (TEACl, 145), CaCl2 (10), MgCl2(1), HEPES (10), and glucose (5), pH 7.4 adjusted with CsOH. Ca^2+ currents were generated by applying a 200-500 ms-depolarizing step to various potentials from a holding potential of −100 mV. The external solution used to measure Na^+ currents contained (in mM) NaCl (145), KCl (5.3), CaCl2 (0.5), MgCl2 (5.7), HEPES (13), and glucose (5), pH 7.4 adjusted with KOH. The composition of the CsCl-pipette solution used to record Na^+ currents was the same describe above. Na^+ currents were generated by applying a 20 ms-depolarizing step to various potentials from a holding potential of −100 mV. To assess drug-evoked changes on specific ionic conductances, current amplitudes were expressed as current densities as previously reported. […]

T-type Ca^2+ channels = assay: Whole-cell recording of T-type Ca2+ currents in differentiated ND7/23 cells; format: cell-based, mouse neuroblastoma and rat dorsal root ganglion cells; conditions: for Effect on T-type Ca2+ current density: vs non-treated cells
Description: as §1
(§2) Whole cell recordings were performed as previously described. A Nikon Eclipse Ti inverted microscope equipped with Hoffman optics and epifluorescence filters was used to visualize individual cells. Recordings were performed at room temperature (22-24° C.) using glass electrodes made from thin wall borosilicate glass (3-5 MΩ). For electrophysiological recordings of inward Ca^2+ currents, outward K^+ currents were eliminated by equimolar substitution of K^+ with Cs^+ in the pipette solution, whereas inward Na^+ currents were eliminated by the use of TEA ions in the external solution, which are unable to go through voltage-gated Na^+ channels. The pipette solution consisted of (in mM) CsCl (120), MgCl2(2), HEPES (10), EGTA (10), ATP (1), and GTP (0.1), pH 7.4 with CsOH. The composition of the normal external saline used for measurements of Ca^2+ currents was (in mM): tetraethylammonium chloride (TEACl, 145), CaCl2 (10), MgCl2(1), HEPES (10), and glucose (5), pH 7.4 adjusted with CsOH. Ca^2+ currents were generated by applying a 200-500 ms-depolarizing step to various potentials from a holding potential of −100 mV. The external solution used to measure Na^+ currents contained (in mM) NaCl (145), KCl (5.3), CaCl2 (0.5), MgCl2 (5.7), HEPES (13), and glucose (5), pH 7.4 adjusted with KOH. The composition of the CsCl-pipette solution used to record Na^+ currents was the same describe above. Na^+ currents were generated by applying a 20 ms-depolarizing step to various potentials from a holding potential of −100 mV. To assess drug-evoked changes on specific ionic conductances, current amplitudes were expressed as current densities as previously reported. To assess current densities, cell size was normalized by dividing current amplitudes by cell capacitance. Cell capacitance was determined by integrating the transient current evoked by a 10-mV voltage step from a holding potential of −60 mV.
(§3) A MULTICLAMP 700A amplifier and PCLAMP software (Axon Instruments) was used to deliver voltage commands and to perform data acquisition and analysis. Pipette offset, whole cell capacitance, and series resistance were compensated automatically with the MultiClamp 700B Commander. Only cells with stable seals and series resistance (≤10 MΩ) were analyzed. Sampling rates were between 5 and 10 kHz. Leak currents were subtracted online using a P/4 protocol. […]

[1] = tested on: voltage-activated Na^+ channels; assay: Whole-cell recording of Na+ currents in differentiated ND7/23 cells; format: cell-based, mouse neuroblastoma and rat dorsal root ganglion cells; conditions: 50 μM
Description: as §1
Whole cell recordings were performed as previously described. A Nikon Eclipse Ti inverted microscope equipped with Hoffman optics and epifluorescence filters was used to visualize individual cells. Recordings were performed at room temperature (22-24° C.) using glass electrodes made from thin wall borosilicate glass (3-5 MΩ). For electrophysiological recordings of inward Ca^2+ currents, outward K^+ currents were eliminated by equimolar substitution of K^+ with Cs^+ in the pipette solution, whereas inward Na^+ currents were eliminated by the use of TEA ions in the external solution, which are unable to go through voltage-gated Na^+ channels. […] To assess drug-evoked changes on specific ionic conductances, current amplitudes were expressed as current densities as previously reported. […] Cell capacitance was determined by integrating the transient current evoked by a 10-mV voltage step from a holding potential of −60 mV.
A MULTICLAMP 700A amplifier and PCLAMP software (Axon Instruments) was used to deliver voltage commands and to perform data acquisition and analysis. […] Only cells with stable seals and series resistance (≤10 MΩ) were analyzed. […]

human Cav3.3 = molecular target: T2, human Cav3.3 (Homo sapiens, UniProt Q9P0X4); assay: Whole-cell patch clamp of T-type Ca2+ currents in Cav3.3-stable transfected HEK 293 cells; format: cell-based
T2 construct: host or cells: HEK 293
Description: as §1, §2, §3

[2] = 50 μM, differentiated ND7/23 cells
[3] = increasing concentrations 1-50 μM

T1 sequence (O95180 whole entry): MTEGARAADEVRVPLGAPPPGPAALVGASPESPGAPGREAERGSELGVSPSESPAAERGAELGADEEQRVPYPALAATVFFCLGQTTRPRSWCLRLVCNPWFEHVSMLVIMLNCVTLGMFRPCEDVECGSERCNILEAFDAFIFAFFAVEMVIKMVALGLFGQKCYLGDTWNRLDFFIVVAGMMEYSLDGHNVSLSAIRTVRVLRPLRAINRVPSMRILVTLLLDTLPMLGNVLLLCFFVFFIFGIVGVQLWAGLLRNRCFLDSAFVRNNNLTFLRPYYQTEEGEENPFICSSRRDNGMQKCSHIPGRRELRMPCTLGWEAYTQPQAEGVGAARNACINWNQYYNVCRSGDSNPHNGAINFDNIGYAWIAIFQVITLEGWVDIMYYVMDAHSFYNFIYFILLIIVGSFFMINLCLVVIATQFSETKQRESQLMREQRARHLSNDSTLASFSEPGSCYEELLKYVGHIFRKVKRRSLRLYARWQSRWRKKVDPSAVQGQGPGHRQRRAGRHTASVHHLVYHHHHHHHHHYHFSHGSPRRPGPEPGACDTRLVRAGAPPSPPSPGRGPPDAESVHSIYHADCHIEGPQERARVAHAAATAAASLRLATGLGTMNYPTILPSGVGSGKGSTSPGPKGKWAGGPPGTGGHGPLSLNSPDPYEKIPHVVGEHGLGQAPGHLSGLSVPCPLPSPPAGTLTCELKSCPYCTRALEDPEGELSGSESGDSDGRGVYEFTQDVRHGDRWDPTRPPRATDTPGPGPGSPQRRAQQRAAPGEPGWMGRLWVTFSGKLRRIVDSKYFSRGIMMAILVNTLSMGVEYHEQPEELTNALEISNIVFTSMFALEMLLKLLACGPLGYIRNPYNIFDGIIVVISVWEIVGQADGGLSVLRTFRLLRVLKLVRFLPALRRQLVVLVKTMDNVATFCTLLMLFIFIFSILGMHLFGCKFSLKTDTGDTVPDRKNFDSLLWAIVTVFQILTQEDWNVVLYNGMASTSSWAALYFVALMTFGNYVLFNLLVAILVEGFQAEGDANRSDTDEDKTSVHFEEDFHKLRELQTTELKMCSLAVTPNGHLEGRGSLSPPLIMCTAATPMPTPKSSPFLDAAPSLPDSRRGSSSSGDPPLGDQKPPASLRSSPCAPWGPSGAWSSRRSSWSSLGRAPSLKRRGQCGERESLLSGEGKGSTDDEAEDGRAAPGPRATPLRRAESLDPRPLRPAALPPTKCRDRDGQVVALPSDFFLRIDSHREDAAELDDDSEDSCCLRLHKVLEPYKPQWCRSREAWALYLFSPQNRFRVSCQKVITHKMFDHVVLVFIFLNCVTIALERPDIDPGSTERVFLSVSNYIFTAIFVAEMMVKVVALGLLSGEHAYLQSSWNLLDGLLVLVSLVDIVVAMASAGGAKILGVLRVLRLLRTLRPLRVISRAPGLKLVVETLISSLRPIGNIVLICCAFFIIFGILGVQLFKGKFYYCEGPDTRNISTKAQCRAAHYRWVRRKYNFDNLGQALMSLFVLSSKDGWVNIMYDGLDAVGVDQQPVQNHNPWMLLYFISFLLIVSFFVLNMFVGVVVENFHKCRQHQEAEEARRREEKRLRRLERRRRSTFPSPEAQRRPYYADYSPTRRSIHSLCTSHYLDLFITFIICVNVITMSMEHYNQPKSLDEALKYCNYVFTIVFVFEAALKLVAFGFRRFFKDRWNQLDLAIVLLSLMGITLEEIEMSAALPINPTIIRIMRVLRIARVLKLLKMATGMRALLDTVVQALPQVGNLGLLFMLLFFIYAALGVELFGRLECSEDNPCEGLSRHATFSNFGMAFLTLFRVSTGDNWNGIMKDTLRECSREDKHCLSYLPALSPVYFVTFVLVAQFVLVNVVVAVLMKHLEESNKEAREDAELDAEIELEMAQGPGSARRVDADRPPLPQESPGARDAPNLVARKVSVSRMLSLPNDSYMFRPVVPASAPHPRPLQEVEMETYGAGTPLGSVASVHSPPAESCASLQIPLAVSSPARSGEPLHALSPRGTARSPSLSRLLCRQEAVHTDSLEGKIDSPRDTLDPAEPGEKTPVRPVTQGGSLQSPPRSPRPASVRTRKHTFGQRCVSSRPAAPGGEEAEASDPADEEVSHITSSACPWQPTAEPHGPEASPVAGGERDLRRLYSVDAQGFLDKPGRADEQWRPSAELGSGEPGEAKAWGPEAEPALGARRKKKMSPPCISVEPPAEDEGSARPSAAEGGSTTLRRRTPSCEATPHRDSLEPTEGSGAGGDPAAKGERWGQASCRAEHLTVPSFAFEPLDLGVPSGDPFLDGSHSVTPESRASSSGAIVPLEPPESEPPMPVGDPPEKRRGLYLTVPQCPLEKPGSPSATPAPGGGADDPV
T2 sequence (Q9P0X4 whole entry): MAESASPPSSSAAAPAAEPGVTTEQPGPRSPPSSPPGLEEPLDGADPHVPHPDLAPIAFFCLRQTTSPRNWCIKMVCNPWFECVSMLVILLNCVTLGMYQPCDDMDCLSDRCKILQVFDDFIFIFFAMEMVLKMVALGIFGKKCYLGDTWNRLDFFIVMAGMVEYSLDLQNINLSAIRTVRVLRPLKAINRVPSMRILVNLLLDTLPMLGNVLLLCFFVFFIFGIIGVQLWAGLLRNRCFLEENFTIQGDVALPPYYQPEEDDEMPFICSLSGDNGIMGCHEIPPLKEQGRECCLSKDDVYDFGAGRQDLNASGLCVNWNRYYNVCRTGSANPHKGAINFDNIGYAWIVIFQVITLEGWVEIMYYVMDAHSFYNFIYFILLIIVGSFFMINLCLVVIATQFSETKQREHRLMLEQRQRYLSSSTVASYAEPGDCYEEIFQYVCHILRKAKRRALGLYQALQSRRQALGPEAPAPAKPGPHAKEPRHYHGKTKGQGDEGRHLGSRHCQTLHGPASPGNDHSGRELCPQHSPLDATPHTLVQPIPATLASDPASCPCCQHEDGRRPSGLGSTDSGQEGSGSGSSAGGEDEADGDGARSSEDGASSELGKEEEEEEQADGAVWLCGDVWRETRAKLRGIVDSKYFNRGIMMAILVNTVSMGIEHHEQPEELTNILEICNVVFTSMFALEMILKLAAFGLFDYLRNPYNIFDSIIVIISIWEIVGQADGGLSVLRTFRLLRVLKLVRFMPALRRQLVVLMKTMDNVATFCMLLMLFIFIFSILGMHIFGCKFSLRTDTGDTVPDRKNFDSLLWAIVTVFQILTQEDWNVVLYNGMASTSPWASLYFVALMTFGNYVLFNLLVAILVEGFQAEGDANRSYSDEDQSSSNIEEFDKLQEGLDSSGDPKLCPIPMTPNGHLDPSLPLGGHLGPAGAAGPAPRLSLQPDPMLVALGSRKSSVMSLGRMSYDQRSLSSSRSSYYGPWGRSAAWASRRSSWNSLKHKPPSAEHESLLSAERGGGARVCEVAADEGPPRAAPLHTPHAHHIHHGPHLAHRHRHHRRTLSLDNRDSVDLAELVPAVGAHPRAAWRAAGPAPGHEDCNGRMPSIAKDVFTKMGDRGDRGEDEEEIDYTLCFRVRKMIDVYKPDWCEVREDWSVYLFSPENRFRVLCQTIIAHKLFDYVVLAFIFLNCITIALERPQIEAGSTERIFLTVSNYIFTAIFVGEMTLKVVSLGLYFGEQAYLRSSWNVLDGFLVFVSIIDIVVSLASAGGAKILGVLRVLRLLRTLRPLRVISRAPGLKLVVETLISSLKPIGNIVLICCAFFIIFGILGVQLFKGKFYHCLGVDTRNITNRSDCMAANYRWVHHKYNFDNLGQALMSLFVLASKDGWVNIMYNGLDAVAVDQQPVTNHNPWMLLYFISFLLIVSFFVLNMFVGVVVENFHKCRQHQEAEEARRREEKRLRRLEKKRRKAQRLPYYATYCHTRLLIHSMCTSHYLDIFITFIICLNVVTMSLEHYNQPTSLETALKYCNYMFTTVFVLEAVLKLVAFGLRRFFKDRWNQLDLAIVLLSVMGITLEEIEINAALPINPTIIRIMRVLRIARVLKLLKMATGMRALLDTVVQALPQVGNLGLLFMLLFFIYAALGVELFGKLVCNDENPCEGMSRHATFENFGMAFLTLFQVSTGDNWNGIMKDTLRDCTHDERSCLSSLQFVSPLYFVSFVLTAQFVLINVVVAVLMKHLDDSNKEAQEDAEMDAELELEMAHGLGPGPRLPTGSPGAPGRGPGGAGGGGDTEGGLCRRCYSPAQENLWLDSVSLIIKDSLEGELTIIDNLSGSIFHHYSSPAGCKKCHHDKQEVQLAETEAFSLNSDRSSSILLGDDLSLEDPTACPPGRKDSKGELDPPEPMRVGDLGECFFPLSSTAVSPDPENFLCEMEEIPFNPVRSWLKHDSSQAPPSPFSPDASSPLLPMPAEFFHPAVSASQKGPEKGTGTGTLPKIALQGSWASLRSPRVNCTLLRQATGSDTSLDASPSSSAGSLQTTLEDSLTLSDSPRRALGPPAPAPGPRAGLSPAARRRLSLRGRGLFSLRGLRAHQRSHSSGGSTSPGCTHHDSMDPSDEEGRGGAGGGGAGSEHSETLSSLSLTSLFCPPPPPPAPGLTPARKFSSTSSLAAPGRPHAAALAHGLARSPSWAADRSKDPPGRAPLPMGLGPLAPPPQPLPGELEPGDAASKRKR

Structure (SMILES): CC1CC(=O)C=C(NC(=O)c2cccc(OC(F)(F)F)c2)C1 (stereo not shown) [ABA58]
Effect on whole cell capacitance (human Cav3.2; 50 μM, HEK 293-Cav3.2 cells): no significant changes; also recorded: no effect on cell capacitance

Structure (SMILES): CC1CC(=O)C=C(NC(=O)c2ccccc2C(F)(F)F)C1 (stereo not shown) [IAA61, N-(5-methyl-3-oxocyclohex-1-en-1-yl)-2-(trifluoromethyl) benzamide]
Effect on T-type Ca2+ current density (T-type Ca^2+ channels; [2]): no effect | Effect on Na+ current density [1]: no noticeable effect

IC50 (T-type Ca^2+ channels; differentiated ND7/23 cells, read-out: IC50 on T-type Ca2+ current densities): 10.6 µM | Effect on inactivation time constant (τ) (human Cav3.2; 10 μM): no effect on the inactivation τ | Effect on peak current (human Cav3.2; 10 μM): significant reduction | Shift of the steady-state inactivation curve (human Cav3.2; 10 μM): leftward shift | Effect on cell capacitance (human Cav3.2; 1-50 μM): no effect on cell capacitance | Effect on T-type Ca2+ current density (human Cav3.2; [3]): significant reduction | V1/2 of steady-state inactivation (Boltzmann fit) (human Cav3.2; treated cells, 10 μM): −70.2±1.0 mV | Effect on inactivation time constant (τ) (human Cav3.3; 10 μM): significant reduction | Effect on steady-state inactivation (human Cav3.3; 10 μM): no effect | Effect on voltage-current relationship (human Cav3.3; 10 μM): considerable reduction | Shift in voltage-dependence of T-type Ca2+ currents (human Cav3.3; 10 μM): no significant shift | Effect on T-type Ca2+ current density (human Cav3.3; [3]): significant reduction | V1/2 of steady-state inactivation (Boltzmann fit) (human Cav3.3; treated cells, 10 μM): −58.5±2.1 mV
Structure (SMILES): CC1CC(=O)C=C(NC(=O)c2cc(C(F)(F)F)cc(C(F)(F)F)c2)C1 (stereo not shown) [IAA65, N-(5-methyl-3-oxocyclohex-1-en-1-yl)-3,5-bis(trifluoromethyl) benzamide]
Reversal of the effect on T-type Ca2+ current density after drug washout (T-type Ca^2+ channels; 50 μM, 5 min washout): no significant recovery; also recorded: did not reverse the drug effect | Effect on T-type Ca2+ current density (T-type Ca^2+ channels; [2]): significant reduction | Effect on Na+ current density [1]: no noticeable effect; also recorded: no effect on the Na^+ current densities | Effect on activation time constant (τ) (human Cav3.2; 10 μM): no significant changes; also recorded: no effect | Shift in voltage-dependence of T-type Ca2+ currents (human Cav3.2; 10 μM): without significant changes; also recorded: no significant shift | Effect on activation time constant (τ) (human Cav3.3; 10 μM): rightward shift; also recorded: significant increase | Effect on cell capacitance (human Cav3.3; 1-50 μM): no effect on call capacitance; also recorded: no effect on cell capacitance

Structure (SMILES): CC1CC(=O)C=C(NC(=O)c2cccc(C(F)(F)F)c2)C1 (stereo not shown) [IAB15, N-(5-methyl-3-oxocyclohex-1-en-1-yl)-3-(trifluoromethyl) benzamide]
Effect on T-type Ca2+ current density (T-type Ca^2+ channels; [2]): significant reduction | Effect on Na+ current density [1]: no noticeable effect; also recorded: no effect on the Na^+ current densities

Structure (SMILES): CC1CC(=O)C=C(NC(=O)c2ccccc2F)C1 (stereo not shown) [IAB67, 2-fluoro-N-(5-methyl-3-oxocyclohex-1-en-1-yl) benzamide]
Effect on T-type Ca2+ current density (T-type Ca^2+ channels; [2]): None of the tested compounds has any effect | Effect on T-type Ca2+ current density (T-type Ca^2+ channels; 50 μM, differentiated ND7/23 cells, listed as IAB65): no effect on Ca^2+ current densities

Structure (SMILES): CC(C)C1CC(=O)C=C(NC(=O)c2ccc(C(F)(F)F)cc2)C1 (stereo not shown) [IAC41, N-(5-isopropyl-3-oxocyclohex-1-en-1-yl)-4-(trifluoromethyl) benzamide]
Effect on T-type Ca2+ current density (T-type Ca^2+ channels; [2]): None of the tested compounds has any effect; also recorded: no effect on Ca^2+ current densities
